Laboratory results from article PMC4976923, “Potent Allosteric Dengue Virus NS5 Polymerase Inhibitors: Mechanism of Action and Resistance Profiling” (PLoS Pathogens, 2016).

Molecular target: T1, DENV4 FL NS5 (Dengue virus type 4, UniProt P09866)
T1 construct: 100 nM DENV FL NS5 protein was added; made in house
Type: biochemical

T1 sequence (P09866 2488-3387): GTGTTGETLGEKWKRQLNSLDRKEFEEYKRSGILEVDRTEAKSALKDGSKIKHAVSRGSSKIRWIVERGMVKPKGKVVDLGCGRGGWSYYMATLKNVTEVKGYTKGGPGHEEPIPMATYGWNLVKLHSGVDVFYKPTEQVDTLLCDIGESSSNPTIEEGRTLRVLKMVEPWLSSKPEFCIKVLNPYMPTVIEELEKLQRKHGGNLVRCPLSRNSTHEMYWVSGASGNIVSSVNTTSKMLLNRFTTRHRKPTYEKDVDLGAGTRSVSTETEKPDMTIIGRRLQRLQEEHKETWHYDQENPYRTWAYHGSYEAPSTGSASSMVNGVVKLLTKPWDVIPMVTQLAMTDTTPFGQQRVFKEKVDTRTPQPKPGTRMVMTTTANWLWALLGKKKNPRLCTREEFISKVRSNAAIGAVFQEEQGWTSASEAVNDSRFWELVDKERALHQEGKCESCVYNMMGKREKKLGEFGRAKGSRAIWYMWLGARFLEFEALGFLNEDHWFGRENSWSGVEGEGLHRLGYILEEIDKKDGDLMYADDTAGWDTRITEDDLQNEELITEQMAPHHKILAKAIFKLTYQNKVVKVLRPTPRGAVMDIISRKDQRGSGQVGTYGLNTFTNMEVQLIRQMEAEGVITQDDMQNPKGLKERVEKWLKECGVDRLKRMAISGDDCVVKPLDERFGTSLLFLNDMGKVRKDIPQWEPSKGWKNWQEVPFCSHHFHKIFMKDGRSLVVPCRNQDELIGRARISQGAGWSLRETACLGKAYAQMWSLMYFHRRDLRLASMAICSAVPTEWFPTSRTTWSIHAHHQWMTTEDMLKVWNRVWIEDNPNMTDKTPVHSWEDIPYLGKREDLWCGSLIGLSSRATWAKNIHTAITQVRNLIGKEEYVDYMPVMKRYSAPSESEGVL

SMILES: COc1cc(OC)c(-c2ccc(C#CCO)s2)cc1C(=O)NS(=O)(=O)c1cccc2cccnc12 [Compound 29]
- mode of inhibition with respect to viral RNA substrate (Lineweaver-Burk plots, 0–500 nM RNA): uncompetitive
- mode of inhibition with respect to GTP (Lineweaver-Burk plots, 0–50 μM GTP): uncompetitive inhibition
- mode of inhibition at high GTP concentrations (high GTP concentrations): non-competitive mode of inhibition
